Data from publication doi:10.1101/2024.08.19.608619, “Discovery of potent SARS-CoV-2 nsp3 macrodomain inhibitors uncovers lack of translation to cellular antiviral response” (bioRxiv, 2024).
“And” between values parts separate entries of the source, which are not always exact repeats. Equal entries are not always repeated. Where two headings read alike, the source gives them in different places.

How the values were obtained:
A2A (h) = target: T1, A2A (h) (Homo sapiens, UniProt P29274); assay: In vitro CEREP profiling, A2A (h) (agonist radioligand); type: binding; conditions: test compound 10 uM
T1 construct: purchased Eurofins Cerep (SafetyScreen44), recognised from the panel format
T1 sequence (P29274 whole entry): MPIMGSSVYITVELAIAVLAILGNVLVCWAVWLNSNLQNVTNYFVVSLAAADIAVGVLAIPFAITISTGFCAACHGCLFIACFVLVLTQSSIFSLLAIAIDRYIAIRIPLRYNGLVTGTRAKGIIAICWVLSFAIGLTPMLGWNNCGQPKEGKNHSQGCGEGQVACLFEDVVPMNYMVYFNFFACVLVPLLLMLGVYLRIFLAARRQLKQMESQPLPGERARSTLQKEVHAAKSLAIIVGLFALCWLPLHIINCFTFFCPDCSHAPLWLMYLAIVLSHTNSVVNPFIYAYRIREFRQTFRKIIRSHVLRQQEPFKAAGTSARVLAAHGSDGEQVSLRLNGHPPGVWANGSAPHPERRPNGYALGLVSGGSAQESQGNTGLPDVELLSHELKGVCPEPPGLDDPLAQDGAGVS
Excerpt: (§1) Supplement media-1.zip/Safety_Panel_Profile.csv, table | column: perc_inhibition

[1] = In vitro mouse hepatocyte stability; type: in vitro ADME
Excerpt: Supplement media-1.zip/Hepatocyte_Stability.csv, table | column: clint; t_half

Protein binding = type: in vitro ADME
Excerpt: Supplement media-1.zip/Protein_Binding.csv, table | column: fu; perc_bound; perc_free; perc_recovered

acetylcholinesterase (h) = target: T2, acetylcholinesterase (h) (Homo sapiens, UniProt P22303); assay: In vitro CEREP profiling, acetylcholinesterase (h); type: biochemical; conditions: test compound concentration 10 uM, Enzyme and Cell-based assays
T2 construct: purchased Eurofins Cerep (SafetyScreen44), recognised from the panel format
T2 sequence (P22303 32-614): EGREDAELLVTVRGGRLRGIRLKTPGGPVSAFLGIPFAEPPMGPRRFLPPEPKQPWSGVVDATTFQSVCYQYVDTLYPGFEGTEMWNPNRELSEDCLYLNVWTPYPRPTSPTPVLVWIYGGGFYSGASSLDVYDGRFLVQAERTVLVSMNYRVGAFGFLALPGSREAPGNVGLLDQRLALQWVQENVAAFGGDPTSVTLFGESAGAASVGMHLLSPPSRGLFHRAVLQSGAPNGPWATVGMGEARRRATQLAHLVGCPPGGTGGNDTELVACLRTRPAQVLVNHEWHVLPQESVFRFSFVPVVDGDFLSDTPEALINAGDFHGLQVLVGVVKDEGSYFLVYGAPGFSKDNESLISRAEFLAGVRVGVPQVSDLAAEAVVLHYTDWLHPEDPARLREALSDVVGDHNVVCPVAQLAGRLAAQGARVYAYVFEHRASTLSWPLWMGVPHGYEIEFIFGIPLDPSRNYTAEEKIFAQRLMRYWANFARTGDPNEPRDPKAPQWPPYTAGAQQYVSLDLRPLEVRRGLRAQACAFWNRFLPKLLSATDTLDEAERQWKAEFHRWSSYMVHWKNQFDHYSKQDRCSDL
Excerpt: as §1

CB2 (h) = target: T3, CB2 (h) (Homo sapiens, UniProt P34972); assay: In vitro CEREP profiling, CB2 (h) (agonist radioligand); type: binding; conditions: test compound 10 uM
T3 construct: purchased Eurofins Cerep (SafetyScreen44), recognised from the panel format
T3 sequence (P34972 whole entry): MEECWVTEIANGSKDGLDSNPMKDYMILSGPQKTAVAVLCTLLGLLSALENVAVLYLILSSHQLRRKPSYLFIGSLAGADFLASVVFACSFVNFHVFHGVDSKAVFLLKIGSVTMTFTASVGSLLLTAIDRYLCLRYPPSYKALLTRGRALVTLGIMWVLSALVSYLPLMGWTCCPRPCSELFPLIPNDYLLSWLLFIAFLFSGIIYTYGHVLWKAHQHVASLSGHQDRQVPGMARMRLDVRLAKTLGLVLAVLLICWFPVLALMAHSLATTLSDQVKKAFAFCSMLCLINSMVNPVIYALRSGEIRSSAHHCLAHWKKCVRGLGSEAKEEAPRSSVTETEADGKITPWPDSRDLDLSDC
Excerpt: as §1

D1 (h) = target: T4, D1 (h) (Homo sapiens, UniProt P21728); assay: In vitro CEREP profiling, D1 (h) (antagonist radioligand); type: binding; conditions: test compound 10 uM
T4 construct: purchased Eurofins Cerep (SafetyScreen44), recognised from the panel format
T4 sequence (P21728 whole entry): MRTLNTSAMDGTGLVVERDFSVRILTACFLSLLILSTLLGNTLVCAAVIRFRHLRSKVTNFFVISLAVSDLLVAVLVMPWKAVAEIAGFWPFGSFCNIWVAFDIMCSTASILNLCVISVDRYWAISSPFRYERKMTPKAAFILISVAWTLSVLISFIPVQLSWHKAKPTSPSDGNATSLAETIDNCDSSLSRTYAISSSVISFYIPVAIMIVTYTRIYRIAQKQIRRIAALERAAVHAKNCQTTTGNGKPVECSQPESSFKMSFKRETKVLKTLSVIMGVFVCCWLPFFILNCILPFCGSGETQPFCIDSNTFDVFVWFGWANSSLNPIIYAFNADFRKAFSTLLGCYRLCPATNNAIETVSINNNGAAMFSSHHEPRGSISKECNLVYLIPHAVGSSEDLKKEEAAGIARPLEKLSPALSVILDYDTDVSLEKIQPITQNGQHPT
Excerpt: as §1

NaV1.5 = NaV1.5 (Homo sapiens, UniProt Q14524); assay: In vitro NaV1.5 cardiotoxicity; conditions: top test concentration 30 uM
Chain of NaV1.5 (Q14524 whole entry): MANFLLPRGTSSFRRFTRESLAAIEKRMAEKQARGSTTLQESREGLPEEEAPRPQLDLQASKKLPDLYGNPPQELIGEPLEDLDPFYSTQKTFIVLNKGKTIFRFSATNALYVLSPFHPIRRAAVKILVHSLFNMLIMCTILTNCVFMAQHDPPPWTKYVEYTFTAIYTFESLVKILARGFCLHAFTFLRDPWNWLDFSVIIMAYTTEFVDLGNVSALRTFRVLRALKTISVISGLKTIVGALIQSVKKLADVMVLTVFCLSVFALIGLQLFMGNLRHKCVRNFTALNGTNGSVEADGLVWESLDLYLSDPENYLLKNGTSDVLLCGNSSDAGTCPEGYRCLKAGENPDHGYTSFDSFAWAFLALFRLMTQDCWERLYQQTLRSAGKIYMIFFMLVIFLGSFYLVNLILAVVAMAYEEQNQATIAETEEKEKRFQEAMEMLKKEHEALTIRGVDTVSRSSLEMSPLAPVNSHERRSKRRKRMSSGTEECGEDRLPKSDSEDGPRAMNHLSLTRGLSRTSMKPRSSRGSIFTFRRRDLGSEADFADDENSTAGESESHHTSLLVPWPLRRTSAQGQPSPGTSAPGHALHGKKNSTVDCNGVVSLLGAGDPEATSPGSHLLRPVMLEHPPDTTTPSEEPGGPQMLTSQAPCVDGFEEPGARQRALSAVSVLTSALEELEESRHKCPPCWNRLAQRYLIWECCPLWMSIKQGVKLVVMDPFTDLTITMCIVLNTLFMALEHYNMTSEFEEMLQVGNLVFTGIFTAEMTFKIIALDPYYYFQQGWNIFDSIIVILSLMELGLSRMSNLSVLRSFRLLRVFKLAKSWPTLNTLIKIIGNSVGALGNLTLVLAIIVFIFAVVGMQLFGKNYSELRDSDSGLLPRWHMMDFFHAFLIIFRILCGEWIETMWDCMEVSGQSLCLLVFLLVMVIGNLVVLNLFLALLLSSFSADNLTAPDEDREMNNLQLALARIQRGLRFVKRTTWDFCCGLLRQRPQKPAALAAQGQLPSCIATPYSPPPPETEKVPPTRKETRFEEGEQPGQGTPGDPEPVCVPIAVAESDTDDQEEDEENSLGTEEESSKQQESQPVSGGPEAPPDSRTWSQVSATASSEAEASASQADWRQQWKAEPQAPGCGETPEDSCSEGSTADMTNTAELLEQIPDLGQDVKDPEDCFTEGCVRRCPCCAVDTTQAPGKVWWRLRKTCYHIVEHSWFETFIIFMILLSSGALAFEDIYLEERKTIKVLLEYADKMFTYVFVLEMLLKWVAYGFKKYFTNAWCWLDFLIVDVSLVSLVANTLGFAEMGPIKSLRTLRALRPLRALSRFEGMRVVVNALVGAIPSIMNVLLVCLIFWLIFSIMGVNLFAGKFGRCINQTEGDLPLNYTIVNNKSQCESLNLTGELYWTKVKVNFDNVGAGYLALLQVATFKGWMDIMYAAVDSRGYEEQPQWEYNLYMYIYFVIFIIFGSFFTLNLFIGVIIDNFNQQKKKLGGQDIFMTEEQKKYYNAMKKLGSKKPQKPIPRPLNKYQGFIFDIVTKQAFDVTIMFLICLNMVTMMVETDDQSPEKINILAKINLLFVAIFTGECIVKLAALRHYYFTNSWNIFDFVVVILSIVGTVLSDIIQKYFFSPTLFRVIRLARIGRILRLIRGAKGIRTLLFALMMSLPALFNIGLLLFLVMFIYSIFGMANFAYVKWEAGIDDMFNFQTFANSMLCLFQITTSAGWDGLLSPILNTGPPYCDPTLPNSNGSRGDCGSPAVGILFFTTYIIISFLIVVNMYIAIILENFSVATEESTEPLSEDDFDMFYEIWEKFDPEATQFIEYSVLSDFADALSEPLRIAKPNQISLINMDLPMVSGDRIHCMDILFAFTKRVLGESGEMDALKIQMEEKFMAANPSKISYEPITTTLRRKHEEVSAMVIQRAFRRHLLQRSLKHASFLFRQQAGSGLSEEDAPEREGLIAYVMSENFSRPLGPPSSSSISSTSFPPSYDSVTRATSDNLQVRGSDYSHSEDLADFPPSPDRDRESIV
Excerpt: Supplement media-1.zip/Cardiotoxicity.csv, table | column: ic50_rest_state; ic50_use_dep_block; perc_inhibition_rest_state; perc_inhibition_use_dep_block

Lck kinase (h) = target: T5, Lck kinase (h) (Homo sapiens, UniProt P06239); assay: In vitro CEREP profiling, Lck kinase (h); type: biochemical; conditions: test compound concentration 10 uM, Enzyme and Cell-based assays
T5 construct: purchased Eurofins Cerep (SafetyScreen44), recognised from the panel format
Excerpt: as §1

CB1 (h) = target: T6, CB1 (h) (Homo sapiens, UniProt P21554); assay: In vitro CEREP profiling, CB1 (h) (agonist radioligand); type: binding; conditions: test compound 10 uM
T6 construct: purchased Eurofins Cerep (SafetyScreen44), recognised from the panel format
Excerpt: as §1

GR (h) = target: T7, GR (h) (Homo sapiens, UniProt P04150); assay: In vitro CEREP profiling, GR (h) (agonist radioligand); type: binding; conditions: test compound concentration 10 uM
T7 construct: purchased Eurofins Cerep (SafetyScreen44), recognised from the panel format
T7 sequence (P04150 1-777): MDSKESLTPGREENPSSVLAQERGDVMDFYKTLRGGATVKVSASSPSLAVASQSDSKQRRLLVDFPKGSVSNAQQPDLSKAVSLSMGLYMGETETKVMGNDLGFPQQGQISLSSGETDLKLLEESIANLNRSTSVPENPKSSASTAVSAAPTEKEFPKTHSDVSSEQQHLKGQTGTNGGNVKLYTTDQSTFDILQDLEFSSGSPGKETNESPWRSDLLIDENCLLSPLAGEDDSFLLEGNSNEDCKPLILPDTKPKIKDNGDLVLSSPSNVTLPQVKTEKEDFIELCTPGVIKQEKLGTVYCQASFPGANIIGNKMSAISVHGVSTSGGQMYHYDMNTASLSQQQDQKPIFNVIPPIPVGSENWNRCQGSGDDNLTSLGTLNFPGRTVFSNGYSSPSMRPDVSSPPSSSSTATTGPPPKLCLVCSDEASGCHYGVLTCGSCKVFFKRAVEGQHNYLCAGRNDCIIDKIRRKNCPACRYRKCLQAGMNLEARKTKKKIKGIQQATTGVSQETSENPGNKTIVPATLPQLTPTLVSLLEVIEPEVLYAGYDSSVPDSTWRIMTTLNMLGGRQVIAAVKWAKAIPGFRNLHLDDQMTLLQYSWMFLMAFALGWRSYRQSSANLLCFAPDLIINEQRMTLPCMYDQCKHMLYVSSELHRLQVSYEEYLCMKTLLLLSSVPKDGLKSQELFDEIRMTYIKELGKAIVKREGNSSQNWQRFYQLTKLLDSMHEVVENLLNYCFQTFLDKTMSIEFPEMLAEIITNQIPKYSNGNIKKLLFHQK
Excerpt: as §1

BZD (central) = assay: In vitro CEREP profiling, BZD (central) (agonist radioligand); type: binding; conditions: test compound 10 uM
Excerpt: as §1

H1 (h) = target: T8, H1 (h) (Homo sapiens, UniProt P35367); assay: In vitro CEREP profiling, H1 (h) (antagonist radioligand); type: binding; conditions: test compound concentration 10 uM
T8 construct: purchased Eurofins Cerep (SafetyScreen44), recognised from the panel format
Excerpt: as §1

c-RAF(h) = target: T9, c-RAF(h) (Homo sapiens, UniProt P04049); assay: biochemical; set-up: In vitro kinase panel profiling, per cent remaining kinase activity at 10 uM; conditions: atp_concentration=120, read-out: % of control remaining
T9 construct: gene RAF1
T9 sequence (P04049 whole entry): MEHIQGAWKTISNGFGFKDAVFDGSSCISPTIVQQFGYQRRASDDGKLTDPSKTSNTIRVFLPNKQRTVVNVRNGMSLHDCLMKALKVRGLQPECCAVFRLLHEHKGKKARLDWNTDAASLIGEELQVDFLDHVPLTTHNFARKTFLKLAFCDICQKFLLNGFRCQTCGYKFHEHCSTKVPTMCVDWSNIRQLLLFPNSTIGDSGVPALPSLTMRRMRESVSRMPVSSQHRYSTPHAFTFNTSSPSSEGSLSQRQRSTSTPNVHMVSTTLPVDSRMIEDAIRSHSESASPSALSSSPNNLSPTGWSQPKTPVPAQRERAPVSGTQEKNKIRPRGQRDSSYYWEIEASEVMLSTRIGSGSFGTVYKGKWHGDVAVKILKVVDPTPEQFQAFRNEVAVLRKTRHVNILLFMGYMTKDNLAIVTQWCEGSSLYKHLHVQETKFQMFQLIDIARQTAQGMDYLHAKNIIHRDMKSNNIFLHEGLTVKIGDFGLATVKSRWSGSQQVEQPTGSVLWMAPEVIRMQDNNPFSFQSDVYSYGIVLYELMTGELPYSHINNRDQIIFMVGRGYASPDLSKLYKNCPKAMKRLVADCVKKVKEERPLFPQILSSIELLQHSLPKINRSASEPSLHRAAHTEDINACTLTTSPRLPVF
Excerpt: (§2) We derisk potential for off-target activity by profiling the compound in a CEREP panel, a standard secondary pharmacology assessment, as well as a kinase panel to derisk a potential hinge-binding motif in our leads, and a PARP panel to derisk activity against human […]. Reassuringly, the compounds are selective, with the only off-targets being moderate human CHRM2 and KOR receptors activity associated with ASAP-0011198.

CaMKI(h) = target: T10, CaMKI(h) (Homo sapiens, UniProt Q14012); assay: biochemical; set-up: In vitro kinase panel profiling, per cent remaining kinase activity at 10 uM; conditions: atp_concentration=200, read-out: % of control remaining
T10 construct: gene CAMK1
T10 sequence (Q14012 whole entry): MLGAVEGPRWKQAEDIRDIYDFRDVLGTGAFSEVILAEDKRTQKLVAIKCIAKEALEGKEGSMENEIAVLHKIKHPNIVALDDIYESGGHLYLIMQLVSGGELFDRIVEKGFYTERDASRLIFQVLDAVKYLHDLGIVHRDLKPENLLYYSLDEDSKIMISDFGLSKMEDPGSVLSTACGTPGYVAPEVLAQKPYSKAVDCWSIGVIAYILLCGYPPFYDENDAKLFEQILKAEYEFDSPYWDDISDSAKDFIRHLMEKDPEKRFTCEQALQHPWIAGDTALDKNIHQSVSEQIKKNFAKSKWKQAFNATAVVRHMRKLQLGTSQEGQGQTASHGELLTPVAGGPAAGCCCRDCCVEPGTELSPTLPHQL
Excerpt: as §2

[2] = In vitro dog plasma protein binding
[3] = In vitro fetal calf serum protein binding
[4] = In vitro human plasma protein binding
[5] = In vitro mouse plasma protein binding
[6] = In vitro rat plasma protein binding
[7] = NaV1.5, rest state, read-out: ic50_rest_state
[8] = NaV1.5, use dependent block, read-out: ic50_use_dep_block
[9] = read-out: perc_inhibition (% inhibition of the binding of a ligand specific for each target)

CNCc1cc(-c2cc3c(N[C@@H](c4ccc5c(c4)S(=O)(=O)CCC5)C(C)C)ncnc3[nH]2)co1 [ASAP-0011176]
perc_inhibition (% inhibition of the binding of a ligand specific for each target) (A2A (h)): 21%
clint [1]: 74.7 uL/min/1E6 cells
t_half [1]: 9.27 min
fu (Protein binding; [2]): 0.088
perc_bound (Protein binding; [2]): 91.2%
perc_free (Protein binding; [2]): 8.77%
perc_recovered (Protein binding; [2]): 70.87%
fu (Protein binding; [3]): 0.08
perc_bound (Protein binding; [3]): 92.0%
perc_free (Protein binding; [3]): 8.01%
perc_recovered (Protein binding; [3]): 78.6%
fu (Protein binding; [4]): 0.08
perc_bound (Protein binding; [4]): 92.0%
perc_free (Protein binding; [4]): 8.01%
perc_recovered (Protein binding; [4]): 78.61%
fu (Protein binding; [5]): 0.031
perc_bound (Protein binding; [5]): 96.9%
perc_free (Protein binding; [5]): 3.14%
perc_recovered (Protein binding; [5]): 94.01%
fu (Protein binding; [6]): 0.072
perc_bound (Protein binding; [6]): 92.8%
perc_free (Protein binding; [6]): 7.24%
perc_recovered (Protein binding; [6]): 95.34%
perc_inhibition: % inhibition of control enzyme activity, acetylcholinesterase (h) (acetylcholinesterase (h)): 10%
perc_inhibition (% inhibition of the binding of a ligand specific for each target) (CB2 (h)): -8%
perc_inhibition (% inhibition of the binding of a ligand specific for each target) (D1 (h)): 14%
perc_inhibition_rest_state (NaV1.5; NaV1.5, rest state): 10.0%
IC50 (NaV1.5; [7]): > 30 µM
perc_inhibition_use_dep_block (NaV1.5; NaV1.5, use dependent block): 16.0%
IC50 (NaV1.5; [8]): > 30 µM
perc_inhibition: % inhibition of control enzyme activity, Lck kinase (h) (Lck kinase (h)): 68%
perc_inhibition (% inhibition of the binding of a ligand specific for each target) (CB1 (h)): 3%
perc_inhibition (% inhibition of the binding of a ligand specific for each target) (GR (h)): 21%
perc_inhibition (% inhibition of the binding of a ligand specific for each target) (BZD (central)): 28%
perc_inhibition (% inhibition of the binding of a ligand specific for each target) (H1 (h)): -3%
remaining activity at 10 µM (c-RAF(h); batch_name=ASAP-0011176-002): 100%
remaining activity at 10 µM (CaMKI(h); batch_name=ASAP-0011176-002): 87%

CC(C)C(Nc1ncnc2[nH]c(C(=O)NC3CCN(C)C3)cc12)c1ccc2c(c1)S(=O)(=O)CCC2 (centres unmarked) [ASAP-0011198]
inhibition at 10 µM (A2A (h); [9]): -4%
clint [1]: 61.0 uL/min/1E6 cells
t_half [1]: 10.1 min and 11.4 min
hepatocyte CLint ([1]; mouse, hepatocytes): 68.4 µL/min/1e6 cells
perc_bound (Protein binding; [2]): 83.5%
perc_free (Protein binding; [2]): 16.5%
perc_recovered (Protein binding; [2]): 87.93%
fu (Protein binding; [3]): 0.173
perc_bound (Protein binding; [3]): 86.0% and 82.7%
perc_free (Protein binding; [3]): 14.0% and 17.3%
perc_recovered (Protein binding; [3]): 61.17% and 107.7%
fu (Protein binding; [4]): 0.271
perc_bound (Protein binding; [4]): 74.5% and 72.9%
perc_free (Protein binding; [4]): 25.5% and 27.1%
perc_recovered (Protein binding; [4]): 81.11% and 116.7%
fu (Protein binding; [5]): 0.184
perc_bound (Protein binding; [5]): 90.1% and 81.6%
perc_free (Protein binding; [5]): 9.91% and 18.4%
perc_recovered (Protein binding; [5]): 88.65% and 93.8%
fu (Protein binding; [6]): 0.164
perc_bound (Protein binding; [6]): 87.5% and 83.6%
perc_free (Protein binding; [6]): 12.5% and 16.4%
perc_recovered (Protein binding; [6]): 93.33% and 104.0%
fraction unbound (Protein binding; bovine, fetal calf serum, In vitro fetal calf serum protein binding): 0.14
fraction unbound (Protein binding; dog, plasma, In vitro dog plasma protein binding): 0.165
fraction unbound (Protein binding; human, plasma, In vitro human plasma protein binding): 0.255
fraction unbound (Protein binding; mouse, plasma, In vitro mouse plasma protein binding): 0.099
fraction unbound (Protein binding; rat, plasma, In vitro rat plasma protein binding): 0.125
inhibition at 10 µM (acetylcholinesterase (h); read-out: perc_inhibition: % inhibition of control enzyme activity, acetylcholinesterase (h)): 28%
inhibition at 10 µM (CB2 (h); [9]): -8%
inhibition at 10 µM (D1 (h); [9]): -3%
IC50 (NaV1.5; [7]): > 30 µM
inhibition at 30 µM (NaV1.5; NaV1.5, rest state, read-out: perc_inhibition_rest_state): 11%
IC50 (NaV1.5; [8]): > 30 µM
inhibition at 30 µM (NaV1.5; NaV1.5, use dependent block, read-out: perc_inhibition_use_dep_block): 11%
inhibition at 10 µM (Lck kinase (h); read-out: perc_inhibition: % inhibition of control enzyme activity, Lck kinase (h)): 15%
inhibition at 10 µM (CB1 (h); [9]): -10%
inhibition at 10 µM (GR (h); read-out: perc_inhibition, % inhibition of the binding of a ligand specific for each target): 11%
perc_inhibition (% inhibition of the binding of a ligand specific for each target) (BZD (central)): 38%
inhibition at 10 µM (H1 (h); [9]): 2%
remaining activity at 10 µM (c-RAF(h); batch_name=ASAP-0011198-002): 105%
remaining activity at 10 µM (CaMKI(h); batch_name=ASAP-0011198-002): 100%

Cn1ncc(-c2cc3c(N[C@@H](c4ccc5c(n4)OCCO5)C(C)(C)C)ncnc3[nH]2)c1C#N [ASAP-0011221]
perc_inhibition (% inhibition of the binding of a ligand specific for each target) (A2A (h)): 52%
clint [1]: 292.0 uL/min/1E6 cells
t_half [1]: 2.37 min
fu (Protein binding; [2]): 0.012
perc_bound (Protein binding; [2]): 98.8%
perc_free (Protein binding; [2]): 1.2%
perc_recovered (Protein binding; [2]): 99.93%
fu (Protein binding; [3]): 0.021
perc_bound (Protein binding; [3]): 97.9%
perc_free (Protein binding; [3]): 2.13%
perc_recovered (Protein binding; [3]): 99.13%
fu (Protein binding; [4]): 0.006
perc_bound (Protein binding; [4]): 99.4%
perc_free (Protein binding; [4]): 0.571%
perc_recovered (Protein binding; [4]): 99.19%
fu (Protein binding; [5]): 0.011
perc_bound (Protein binding; [5]): 98.9%
perc_free (Protein binding; [5]): 1.06%
perc_recovered (Protein binding; [5]): 98.18%
fu (Protein binding; [6]): 0.018
perc_bound (Protein binding; [6]): 98.2%
perc_free (Protein binding; [6]): 1.83%
perc_recovered (Protein binding; [6]): 90.47%
perc_inhibition: % inhibition of control enzyme activity, acetylcholinesterase (h) (acetylcholinesterase (h)): 14%
perc_inhibition (% inhibition of the binding of a ligand specific for each target) (CB2 (h)): 31%
perc_inhibition (% inhibition of the binding of a ligand specific for each target) (D1 (h)): 9%
perc_inhibition_rest_state (NaV1.5; NaV1.5, rest state): 17.0%
IC50 (NaV1.5; [7]): > 30 µM
perc_inhibition_use_dep_block (NaV1.5; NaV1.5, use dependent block): 21.0%
IC50 (NaV1.5; [8]): > 30 µM
perc_inhibition: % inhibition of control enzyme activity, Lck kinase (h) (Lck kinase (h)): 47%
perc_inhibition (% inhibition of the binding of a ligand specific for each target) (CB1 (h)): 33%
perc_inhibition (% inhibition of the binding of a ligand specific for each target) (GR (h)): 28%
perc_inhibition (% inhibition of the binding of a ligand specific for each target) (BZD (central)): -5%
perc_inhibition (% inhibition of the binding of a ligand specific for each target) (H1 (h)): 7%
remaining activity at 10 µM (c-RAF(h); batch_name=ASAP-0011221-002): 87%
remaining activity at 10 µM (CaMKI(h); batch_name=ASAP-0011221-002): 87%
